The values below come from DBAASP.

Test in all cases: ≥ marks a high value that may be exact or a test limit, other limits are often not marked, values filed in µg/mL are converted to µM
For assay [1], the system named is Escherichia coli ATCC 25922.
The test system of assay [2] is Staphylococcus aureus ATCC 25923.
In assay [3] the test system is Pseudomonas aeruginosa ATCC 27853.

Molecules are shown by their SMILES. In brackets after ≈: the same amount, converted by molar mass. Several values for one entry are separate records, joined by “and”; a condition that tells them apart may be missing. Equal entries are not always repeated.

Take `CC[C@H](C)[C@H](NC(=O)[C@H](CCCN=C(N)N)NC(=O)[C@H](CCCCN)NC(=O)[C@H](CC(C)C)NC(=O)[C@H](CC(C)C)NC(=O)[C@H](C)N)C(=O)N[C@@H](CCCCN)C(=O)N[C@H](C(=O)N[C@@H](CC(C)C)C(=O)N[C@@H](CC(C)C)C(N)=O)[C@@H](C)O` [ALLKRIKTLL]: the minimal inhibitory concentration (MIC) in assay [1] and in assay [2] was more than 18 µM in each case.
Take `CC(C)C[C@H](NC(=O)[C@H](CC(C)C)NC(=O)[C@H](CCCCN)NC(=O)[C@H](CCCCN)NC(=O)[C@H](C)NC(=O)[C@H](CC(C)C)NC(=O)[C@H](CCCCN)NC(=O)[C@H](CC(C)C)NC(=O)[C@@H](N)Cc1ccccc1)C(N)=O` [FLKLAKKLL]: the MIC in assay [3] was 59.6 µM and 119 µM.
`CC[C@H](C)[C@H](NC(=O)[C@@H](NC(=O)[C@@H](NC(=O)CNC(=O)[C@H](C)NC(=O)[C@@H](NC(=O)[C@H](CC(N)=O)NC(=O)[C@@H](NC(=O)[C@H](C)NC(=O)[C@H](CC(C)C)NC(=O)[C@H](CC(N)=O)NC(=O)[C@H](CCCCN)NC(=O)[C@@H](NC(=O)[C@@H](NC(=O)[C@H](CO)NC(=O)[C@H](CC(C)C)NC(=O)[C@H](Cc1ccccc1)NC(=O)CN)[C@@H](C)O)C(C)C)[C@@H](C)O)C(C)C)[C@@H](C)O)C(C)C)C(=O)N[C@@H](CC(=O)O)C(=O)N[C@H](C(=O)N[C@@H](CC(C)C)C(=O)N[C@@H](CCCCN)C(=O)N[C@H]1CSSC[C@@H](C(=O)N[C@@H](CCCN=C(N)N)C(=O)N[C@@H](CO)C(=O)O)NC(=O)CNC(=O)CNC(=O)[C@H]([C@@H](C)O)NC(=O)[C@H](C(C)C)NC(=O)[C@H](CCCCN)NC1=O)[C@@H](C)O` [GFLSTVKNLATNVAGTVIDTLKCKVTGGCRS]: the MIC in assay [1] was found to be 120 µM (≈ 378 µg/mL).
Turning to `CC[C@H](C)[C@H](NC(=O)CNC(=O)[C@@H](NC(=O)[C@H](CCCCN)NC(=O)[C@@H](NC(=O)[C@H](CCCCN)NC(=O)CN)C(C)C)[C@@H](C)CC)C(=O)N[C@@H](CC(N)=O)C(=O)NCC(=O)N[C@@H](Cc1ccccc1)C(=O)NCC(=O)N[C@@H](CCCN=C(N)N)C(=O)N[C@H](C(=O)NCC(=O)N[C@@H](CCCN=C(N)N)C(=O)N[C@@H](CC(C)C)C(=O)N[C@H](C(=O)N[C@@H](C)C(=O)O)C(C)C)[C@@H](C)CC` [GKVKIGINGFGRIGRLVA], the MIC was determined as 69 µM (≈ 128 µg/mL) in assay [1] and 276 µM (≈ 512 µg/mL) in assay [2].
Taken in the same sequence, the figures for `CC[C@H](C)[C@H](NC(=O)[C@H](CCCN=C(N)N)NC(=O)[C@H](CCCCN)NC(=O)[C@H](CC(C)C)NC(=O)[C@H](CC(C)C)NC(=O)CN)C(=O)N[C@@H](CCCCN)C(=O)N[C@@H](C)C(=O)N[C@@H](CC(C)C)C(=O)N[C@@H](CC(C)C)C(N)=O` [GLLKRIKALL] were 14.2 µM (≈ 16 µg/mL) and 7.11 µM (≈ 7.99 µg/mL).
For the compound `CC[C@H](C)[C@H](NC(=O)CNC(=O)[C@H](CCC(N)=O)NC(=O)[C@H](C)NC(=O)[C@@H](NC(=O)[C@H](CCCCN)NC(=O)[C@H](CCCCN)NC(=O)[C@H](CC(C)C)NC(=O)[C@H](C)NC(=O)[C@H](CC(N)=O)NC(=O)[C@H](CC(C)C)NC(=O)CN)C(C)C)C(=O)N[C@@H](Cc1cnc[nH]1)C(=O)N[C@@H](CCC(=O)O)C(=O)N[C@@H](C)C(=O)N[C@H](C(=O)N[C@@H](CCCCN)C(=O)N[C@@H](CC(C)C)C(=O)N[C@H](C(=O)N[C@@H](CC(N)=O)C(=O)N[C@@H](CC(N)=O)C(=O)N[C@@H](Cc1cnc[nH]1)C(=O)N[C@H](C(=O)N[C@@H](CCC(N)=O)C(N)=O)C(C)C)[C@@H](C)CC)[C@@H](C)CC` [GLNALKKVAQGIHEAIKLINNHVQ], in assay [1], the minimal inhibitory concentration (MIC) stood at 11.3 µM (≈ 29.5 µg/mL).
The same measure, in the same setting: the value for `CC[C@H](C)[C@H](NC(=O)[C@H](C)NC(=O)CNC(=O)[C@H](C)NC(=O)[C@H](CCCCN)NC(=O)[C@H](CO)NC(=O)[C@H](C)NC(=O)[C@H](CCSC)NC(=O)CN)C(=O)N[C@@H](C)C(=O)NCC(=O)N[C@@H](CCCCN)C(=O)N[C@H](C(=O)N[C@@H](C)C(=O)N[C@@H](CCCCN)C(=O)N[C@H](C(=O)N[C@@H](C)C(=O)N[C@@H](Cc1c[nH]c2ccccc12)C(=O)N[C@@H](CCCCN)C(=O)N[C@@H](C)C(=O)N[C@@H](CC(C)C)C(=O)NCC(=O)NCC(=O)N[C@@H](CS)C(N)=O)C(C)C)[C@@H](C)CC` [GMASKAGAIAGKIAKVAWKALGGC] was 4.42 µM (≈ 9.98 µg/mL).
For the compound `CC[C@H](C)[C@H](NC(=O)[C@H](C)NC(=O)[C@@H](NC(=O)[C@H](C)NC(=O)[C@H](CCCCN)NC(=O)[C@H](C)NC(=O)[C@H](CC(C)C)NC(=O)[C@H](CCCCN)NC(=O)CNC(=O)[C@H](CC(C)C)NC(=O)[C@@H](NC(=O)[C@H](CO)NC(=O)CNC(=O)[C@H](C)NC(=O)[C@@H](NC(=O)[C@H](CO)NC(=O)[C@H](C)NC(=O)[C@H](CCSC)NC(=O)CN)[C@@H](C)O)C(C)C)C(C)C)C(=O)NCC(=O)N[C@@H](C)C(=O)N[C@@H](CC(C)C)C(N)=O` [GMASTAGSVLGKLAKAVAIGAL], the minimal inhibitory concentration (MIC) in assay [1] and in assay [2] was more than 200 µM each time.
For `CC[C@H](C)[C@H](NC(=O)[C@H](CCCN=C(N)N)NC(=O)[C@H](CCCCN)NC(=O)[C@H](CCSC)NC(=O)[C@H](CCSC)NC(=O)CN)C(=O)N[C@@H](CCCCN)C(=O)N[C@H](C(=O)N[C@@H](CCSC)C(=O)N[C@@H](CCSC)C(N)=O)[C@@H](C)O` [GMMKRIKTMM], the minimum inhibitory concentration (MIC) in assay [1] was more than 200 µM.
Same read-out and setting: with `CC[C@H](C)[C@H](NC(=O)[C@H](Cc1c[nH]c2ccccc12)NC(=O)[C@H](Cc1c[nH]c2ccccc12)NC(=O)[C@H](Cc1c[nH]c2ccccc12)NC(=O)[C@H](Cc1c[nH]c2ccccc12)NC(=O)[C@H](CCCCN)NC(=O)[C@H](CCCCN)NC(=O)[C@H](CCCCN)NC(=O)[C@@H](N)CCCCN)C(N)=O` [KKKKWWWWI] the figure was 5.76 µM (≈ 7.99 µg/mL).
In the case of `CC[C@H](C)[C@H](NC(=O)[C@H](CC(C)C)NC(=O)[C@H](C)NC(=O)[C@@H]1CCCN1C(=O)[C@H](CC(C)C)NC(=O)CNC(=O)[C@@H](NC(=O)[C@@H](NC(=O)[C@H](CC(C)C)NC(=O)[C@@H](NC(=O)[C@H](CCCCN)NC(=O)[C@H](CCCCN)NC(=O)[C@H](C)NC(=O)[C@H](C)NC(=O)[C@H](CO)NC(=O)[C@@H](NC(=O)[C@H](CC(C)C)NC(=O)[C@H](CCCCN)NC(=O)[C@H](CCCCN)NC(=O)[C@@H](NC(=O)[C@H](Cc1ccccc1)NC(=O)[C@H](CCCCN)NC(=O)[C@H](CCCCN)NC(=O)[C@H](Cc1c[nH]c2ccccc12)NC(=O)[C@@H](N)CCCCN)[C@@H](C)CC)[C@@H](C)O)C(C)C)[C@@H](C)O)[C@@H](C)O)C(=O)N[C@@H](CO)C(=O)O` [KWKKFIKKLTSAAKKVLTTGLPALIS], in assay [3], the MIC stood at 4 µM (≈ 11.5 µg/mL).
On to `CC(C)C[C@H](NC(=O)[C@H](Cc1c[nH]c2ccccc12)NC(=O)[C@H](C)NC(=O)CNC(=O)[C@H](Cc1c[nH]c2ccccc12)NC(=O)[C@H](CC(N)=O)NC(=O)[C@@H](N)CC(C)C)C(=O)N[C@@H](CCCCN)C(=O)N[C@@H](Cc1cnc[nH]1)C(=O)N[C@@H](Cc1c[nH]c2ccccc12)C(=O)N[C@@H](Cc1c[nH]c2ccccc12)C(=O)N[C@@H](CCCCN)C(=O)O` [LNWGAWLKHWWK], for which the MIC in assay [3] came to 32 µM (≈ 52 µg/mL).
In turn, `CC(C)C[C@H](NC(=O)[C@H](CCCN=C(N)N)NC(=O)[C@H](CCCN=C(N)N)NC(=O)[C@H](CC(C)C)NC(=O)[C@H](Cc1c[nH]c2ccccc12)NC(=O)[C@H](CCCN=C(N)N)NC(=O)[C@H](Cc1c[nH]c2ccccc12)NC(=O)[C@@H](NC(=O)[C@H](CCCCN)NC(=O)[C@H](CCCN=C(N)N)NC(=O)[C@@H](N)CC(C)C)C(C)C)C(N)=O` [LRKVWRWLRRL] had an MIC in assay [2] of 10 µM (≈ 15.8 µg/mL).
The compound `CC[C@H](C)[C@@H]1NC(=O)[C@H](CCCCN)NC(=O)[C@@H]2CCCN2C(=O)[C@H](Cc2cnc[nH]2)NC(=O)CNC(=O)[C@@H]2CSSC[C@@H]3NC(=O)[C@H](CO)NC(=O)CNC(=O)CNC(=O)[C@H](Cc4ccc(O)cc4)NC(=O)[C@H](CO)NC(=O)[C@H](CCSC)NC(=O)[C@@H](NC(=O)[C@@H](NC(=O)[C@@H](NC(=O)[C@@H]4CCCN4C(=O)[C@H](CO)NC(=O)[C@H](CC(N)=O)NC(=O)[C@@H](NC(=O)[C@H](CC(C)C)NC(=O)[C@@H](N)CCC(N)=O)[C@@H](C)CC)C(C)C)[C@@H](C)O)CSSC[C@H](NC(=O)[C@H](CCCN=C(N)N)NC1=O)C(=O)N[C@H](C(=O)N[C@@H](CCCN=C(N)N)C(=O)N[C@@H](CCCN=C(N)N)C(=O)N[C@@H](CCCCN)C(=O)O)CSSC[C@H](NC(=O)[C@H](CO)NC(=O)[C@H](CCCN=C(N)N)NC(=O)[C@H](CCC(N)=O)NC3=O)C(=O)N[C@@H](CC(N)=O)C(=O)NCC(=O)NCC(=O)N[C@@H](Cc1ccccc1)C(=O)N[C@@H](CCCN=C(N)N)C(=O)N[C@@H](CC(C)C)C(=O)NCC(=O)NCC(=O)N[C@@H](Cc1cnc[nH]1)C(=O)N2` [QLINSPVTCMSYGGSCQRSCNGGFRLGGHCGHPKIRCCRRK] returned an MIC in assay [1] of 4.48 µM (≈ 20 µg/mL).
Turning to `CC[C@H](C)[C@H](NC(=O)[C@H](Cc1ccc(O)cc1)NC(=O)[C@H](CCC(N)=O)NC(=O)[C@H](CC(C)C)NC(=O)[C@H](C)NC(=O)[C@H](CCCCN)NC(=O)[C@H](CCCCN)NC(=O)[C@H](CCSC)NC(=O)[C@H](CCCCN)NC(=O)[C@H](CCCCN)NC(=O)[C@H](CCCCN)NC(=O)[C@H](CCCN=C(N)N)NC(=O)[C@H](CCCN=C(N)N)NC(=O)[C@H](Cc1ccc(O)cc1)NC(=O)[C@@H](N)CCCN=C(N)N)C(=O)N[C@@H](CCCCN)C(=O)N[C@@H](CC(C)C)C(N)=O` [RYRRKKKMKKALQYIKL], the minimal inhibitory concentration (MIC) in assay [1] and in assay [3] was more than 100 µM each time.
In assay [2], `CC(C)C[C@H](NC(=O)[C@H](C)NC(=O)[C@@H](N)CO)C(=O)N[C@H](C(=O)NCC(=O)N[C@H]1CSSC[C@@H](C(=O)N[C@@H](Cc2ccccc2)C(=O)NCC(=O)N[C@@H](CCCN=C(N)N)C(=O)O)NC(=O)[C@@H]2CCCN2C(=O)[C@H](CCCCN)NC(=O)[C@@H]2CCCN2C(=O)[C@@H]2CCCN2C(=O)[C@H](Cc2ccc(O)cc2)NC(=O)[C@H](CO)NC(=O)[C@H](CCCCN)NC(=O)[C@H]([C@@H](C)O)NC(=O)CNC1=O)C(C)C` [SALVGCGTKSYPPKPCFGR] displayed a minimal inhibitory concentration (MIC) of 12.7 µM (≈ 25 µg/mL).
As to `CC(C)C[C@H](NC(=O)[C@H](Cc1ccccc1)NC(=O)[C@@H]1CCCN1C(=O)[C@H](Cc1ccc(O)cc1)NC(=O)[C@H](Cc1ccc(O)cc1)NC(=O)[C@H](Cc1c[nH]c2ccccc12)NC(=O)[C@@H]1CCCN1C(=O)[C@H](Cc1ccccc1)NC(=O)[C@H](CCCN=C(N)N)NC(=O)[C@H](CCCN=C(N)N)NC(=O)[C@@H](N)C(C)C)C(=O)N[C@@H](CCCN=C(N)N)C(=O)N[C@@H](CCCN=C(N)N)C(N)=O` [VRRFPWYYPFLRR], in assay [1], the minimal inhibitory concentration (MIC) was determined as 16 µM (≈ 29.7 µg/mL).
